Test results: CN101659655A, “一类吡唑酰胺衍生物及其应用” (Nankai University, priority 2009, dated 2010)

What was measured:
Assay type in all cases: in vivo
[1] = system: oriental armyworm, Mythimna separata Walker (东方粘虫); experiment: bioactivity evaluation against oriental armyworm, leaf dip; conditions: in Zea mays, foliar, 72 h, read-out: mortality grade
[2] = system: beet armyworm, Laphygma exigua Hubner (甜菜夜蛾); experiment: bioactivity evaluation against beet armyworm, leaf dip; conditions: Spodoptera exigua, in Brassica oleracea, foliar, 72 h, read-out: mortality grade
[3] = system: diamondback moth, Plutella xylostella (L.) (小菜蛾); experiment: bioactivity evaluation against diamondback moth, leaf dip; conditions: in Brassica oleracea, foliar, 72 h, read-out: mortality grade

Measured: mortality at 500 ppm

Cc1cc(Cl)cc(C(=O)NC2CC2)c1NC(=O)c1cc(OCC(F)(F)F)nn1-c1ncccc1Cl [compound 18]
90 to 100%: [1] | [2] | [3]
